Source: ChEMBL document CHEMBL3046709, “Substituted aminoalcohol ester analogs of indomethacin with reduced toxic effects” (Med Chem Res, 2007)
Structures can show the parent of a compound that is named as a salt.

What was measured:
Rattus norvegicus [1] = assay: Anti-inflammatory activity in Rattus norvegicus Sprague-Dawley (rat) assessed as inhibition of carrageenan-induced paw edema at 3 mg/kg, po administered 1 hr prior to carrageenan-challenge measured after 3 hr by plethysmometric analysis relative to control; assay type: functional
[2] = Half life in aqueous buffer at 1 mg/ml at pH 7.4 measured for 6 hr; assay type: ADME
Rattus norvegicus [3] = assay: Anticholinergic activity in po dosed overnight fasted Rattus norvegicus (rat) ileum; assay type: functional; settings: read-out: pA2 (converted)
Rattus norvegicus [4] = assay: Ulcerogenic activity in 36 hr fasting Rattus norvegicus Sprague-Dawley (rat) stomach assessed as ulcer index at 25 mg/kg, po measured after 4 hr; assay type: toxicity, organism-based; set-up: dose 25 mg/kg, route oral; settings: in vivo
Mus musculus = assay: Analgesic activity in Mus musculus (mouse) assessed as inhibition of acetic acid-induced writhing at 15 mg/kg, po administered 1 hr prior to acetic acid challenge measured at 5 to 20 min relative to control; assay type: functional

COc1ccc2c(c1)c(CC(=O)OCCN1CCCCC1)c(C)n2C(=O)c1ccc(Cl)cc1
inhibition in vivo at 3 mg/kg (Rattus norvegicus [1]): 16.6% | half-life at 1 mg/ml [2]: 66 h | Kb (Rattus norvegicus [3]): 9.12 µM | UI (Rattus norvegicus [4]): 0.134 | inhibition in vivo at 15 mg/kg (Mus musculus): 35%

CCN(CC)CCOC(=O)Cc1c(C)n(C(=O)c2ccc(Cl)cc2)c2ccc(OC)cc12
inhibition in vivo at 3 mg/kg (Rattus norvegicus [1]): 34.6% | half-life at 1 mg/ml [2]: 39 h | Kb (Rattus norvegicus [3]): 32.4 µM | UI (Rattus norvegicus [4]): 0.317 | inhibition in vivo at 15 mg/kg (Mus musculus): 23%

CN1C2CCC1CC(OC(=O)C(CO)c1ccccc1)C2 (stereo not drawn) [ENDO-ATROPINE SULFATE]
Kb (Rattus norvegicus [3]): 0.00631 µM

COc1ccc2c(c1)c(CC(=O)O)c(C)n2C(=O)c1ccc(Cl)cc1 [INDOMETHACIN]
inhibition in vivo at 3 mg/kg (Rattus norvegicus [1]): 45.4% | UI (Rattus norvegicus [4]): 0.547 | inhibition in vivo at 15 mg/kg (Mus musculus): 42.1%

COc1ccc2c(c1)c(CC(=O)OCCN1CCOCC1)c(C)n2C(=O)c1ccc(Cl)cc1
inhibition in vivo at 3 mg/kg (Rattus norvegicus [1]): 23.1% | half-life at 1 mg/ml [2]: 52 h | Kb (Rattus norvegicus [3]): 6.92 µM | UI (Rattus norvegicus [4]): 0.259 | inhibition in vivo at 15 mg/kg (Mus musculus): 35.5%

COc1ccc2c(c1)c(CC(=O)OCCN(C)C)c(C)n2C(=O)c1ccc(Cl)cc1
inhibition in vivo at 3 mg/kg (Rattus norvegicus [1]): 46.7% | half-life at 1 mg/ml [2]: 34 h | Kb (Rattus norvegicus [3]): 6.46 µM | UI (Rattus norvegicus [4]): 0.149 | inhibition in vivo at 15 mg/kg (Mus musculus): 39.9%

COc1ccc2c(c1)c(CC(=O)OCCN1CCCC1)c(C)n2C(=O)c1ccc(Cl)cc1
inhibition in vivo at 3 mg/kg (Rattus norvegicus [1]): 37.5% | half-life at 1 mg/ml [2]: 99 h | Kb (Rattus norvegicus [3]): 12 µM | UI (Rattus norvegicus [4]): 0.341 | inhibition in vivo at 15 mg/kg (Mus musculus): 37.2%
